The values below are quoted from earlier work in patent US11730774B2, “Bacterial biofilms and cancer” (THE JOHNS HOPKINS UNIVERSITY, priority 2018, dated 2023).

The structures appear in SMILES notation.

The data set concerns bacteria. Conditions: 6-week-old mice, water containing 500 mg/L cefoxitin for 48 hours; by 24 hours.

As for `CO[C@@]1(NC(=O)Cc2cccs2)C(=O)N2C(C(=O)O)=C(COC(N)=O)CS[C@@H]21` [Cefoxitin], the “detectable bacteria by culture or 16S rRNA qPCR” value is recorded as “absence of detectable bacteria”.
